{"source": "patent US9371265B2", "about": "“Compositions and methods related to inhibitors of JAK kinase” (EP PHARMA, INC., priority 2012, dated 2016)", "key": {"[1]": {"experiment": "Stability analysis in solvents using NMR and HPLC", "assay_type": "physicochemical", "procedure": "FIG. 3. EP009 is structurally stable under varying solvent and temperature conditions. EP009 was dissolved in DMSO, DMSO:H20 (3:2 ratio), or methanol, and incubated at 25° C. or 37° C. for 24 hours.\nFIG. 11 illustrates the dose-dependent effect of (FIG. 11A) freshly prepared EP-009(P) and (FIG. 11B) EP-009(P) stored in aqueous conditions for 48 hr at room temperature on IL-2/JAK3-dependent Kit225 cell viability. FIG. 12 illustrates LC-MS/MS detection of EP-009 (5 ng/ml) in mouse plasma at a retention time of 1.91 min."}, "[2]": {"test_system": "IL-2/JAK3-dependent Kit225 cells", "experiment": "Kit225 cell viability (MTS)", "assay_type": "cell-based, human", "procedure": "(§1) FIGS. 2A-2F. […] (B) Kit225 or (C) BaF/3 cells cultured in the presence of IL-2 or IL-3, respectively, were treated with vehicle (PBS; lane a) or increasing amounts of EP009 (0-50 μM; lanes b-h) for 12 hours. Cells were then lysed, clarified, and immunoprecipitated (IP) with anti-JAK3 (α-JAK3) or anti-JAK2 (α-JAK2), and subjected to Western blot (WB) analysis with anti-phosphotyrosine (α-pY). Blots were stripped and reprobed with corresponding antibody to verify equivalent protein loading. (D) Immunopurified JAK3 was subjected to in vitro autokinase analysis after treatment with vehicle (DMSO; lanes a and b) or ascending concentrations of EP009 (0-10 μM; lanes c-f) for 1 hour at room temperature. […] (E) Kit225 or BaF/3 cells were cultured with increasing amounts of EP009 (0-10 μM) for 72 hours and cell viability measured with the MTS tetrazolium salt assay. Values represent mean absorbance (OD490-OD650 nm) normalized to vehicle (PBS) treated control cells, while error bars represent the standard deviation (n=3). (F) HEK293, HEPG2, or naïve primary human PBMCs were cultured with increasing amounts of EP009 (0-10 μM) for 72 hours and cell viability measured with the MTS tetrazolium salt assay. Values represent mean absorbance (OD490-OD650 nm) normalized to vehicle (PBS) treated control cells, while error bars represent the standard deviation (n=3). […]"}, "[3]": {"test_system": "IL-3/JAK2-dependent BaF/3 cells", "experiment": "BaF/3 cell viability (MTS)", "assay_type": "cell-based, murine", "conditions": "identical concentrations of EP009 (up to 10 μM), 72 hours", "procedure": "as §1"}, "AKT1": {"target": "AKT1 (Homo sapiens, UniProt P31749)", "sequence (P31749 whole entry)": "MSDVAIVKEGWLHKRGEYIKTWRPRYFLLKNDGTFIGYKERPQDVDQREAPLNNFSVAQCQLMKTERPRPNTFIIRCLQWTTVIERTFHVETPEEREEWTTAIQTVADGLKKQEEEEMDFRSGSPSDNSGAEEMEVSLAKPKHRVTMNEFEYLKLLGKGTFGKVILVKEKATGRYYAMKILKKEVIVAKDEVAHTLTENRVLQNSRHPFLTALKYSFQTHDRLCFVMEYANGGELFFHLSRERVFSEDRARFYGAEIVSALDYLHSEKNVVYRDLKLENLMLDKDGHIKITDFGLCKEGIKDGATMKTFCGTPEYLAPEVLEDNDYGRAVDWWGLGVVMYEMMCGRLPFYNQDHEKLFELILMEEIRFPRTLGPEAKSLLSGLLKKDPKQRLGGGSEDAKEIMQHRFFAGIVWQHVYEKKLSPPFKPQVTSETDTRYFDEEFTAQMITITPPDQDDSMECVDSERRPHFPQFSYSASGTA", "experiment": "Kinase panel: AKT1", "assay_type": "biochemical", "conditions": "10 μM EP009", "procedure": "(§2) Achieving JAK3 selectivity remains a significant challenge in the development of new small molecules for the treatment of cancer and immune-derived diseases. As such, the inventors employed cell-based screening assays of small-molecule libraries based upon the chemical scaffold of the established JAK3 inhibitor NC1153 (Stepkowski et al., J Immunol. (2005), 175(7):4236-4246) EP009 (FIG. 2A) was selected as a lead compound due to improved intrinsic stability (>95% purity in various solvents at 37° C. for 24 hours; FIG. 3) and high-degree of JAK3 selectivity. To test JAK3 versus JAK2 specificity of EP009, the IL-2/JAK3-dependent Kit225, and IL-3/JAK2-dependent BaF/3 cell lines were used. Kit225 and BaF/3 cells growing in the presence of IL-2 or IL-3, respectively, were treated with ascending concentrations of EP009 for 12 hours and cellular JAK3 and JAK2 tyrosine phosphorylation levels detected by Western blot analysis (FIGS. 2B and 2C). Following densitometric analysis, EP009 was determined to dose-dependently reduce IL-2-mediated JAK3 tyrosine phosphorylation with a cellular 50% inhibitory concentration (IC50) between 10 and 20 μM (FIG. 2B). […] To globally evaluate specificity, the inhibitory activity of EP009 was measured against a panel of protein kinases distributed throughout the kinome using the scanEDGE profiling service (KINOMEscan). […]"}, "CDK9": {"target": "CDK9 (Homo sapiens, UniProt P50750)", "sequence (P50750 whole entry)": "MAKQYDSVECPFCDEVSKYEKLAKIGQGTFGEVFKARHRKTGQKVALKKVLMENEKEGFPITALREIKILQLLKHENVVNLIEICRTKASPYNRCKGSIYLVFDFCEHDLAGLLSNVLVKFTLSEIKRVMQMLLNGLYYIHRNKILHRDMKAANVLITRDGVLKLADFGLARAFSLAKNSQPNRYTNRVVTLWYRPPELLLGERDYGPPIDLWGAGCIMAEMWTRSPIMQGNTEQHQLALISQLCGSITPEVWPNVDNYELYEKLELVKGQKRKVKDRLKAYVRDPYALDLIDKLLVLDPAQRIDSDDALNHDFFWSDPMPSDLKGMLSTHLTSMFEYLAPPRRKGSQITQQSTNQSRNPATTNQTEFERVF", "experiment": "Kinase panel: CDK9", "assay_type": "biochemical", "conditions": "10 μM EP009", "procedure": "as §2"}, "ERK1": {"target": "ERK1 (Homo sapiens, UniProt P27361)", "sequence (P27361 whole entry)": "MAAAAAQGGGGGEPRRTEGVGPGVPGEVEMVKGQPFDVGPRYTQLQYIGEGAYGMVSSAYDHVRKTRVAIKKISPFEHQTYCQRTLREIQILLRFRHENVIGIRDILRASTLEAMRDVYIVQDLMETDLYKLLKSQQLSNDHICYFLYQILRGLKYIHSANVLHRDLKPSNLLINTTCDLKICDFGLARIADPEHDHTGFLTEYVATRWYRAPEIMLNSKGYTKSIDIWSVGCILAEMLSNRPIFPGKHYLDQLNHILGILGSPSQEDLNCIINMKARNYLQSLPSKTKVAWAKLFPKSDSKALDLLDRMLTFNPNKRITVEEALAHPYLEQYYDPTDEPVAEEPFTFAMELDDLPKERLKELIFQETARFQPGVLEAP", "experiment": "Kinase panel: ERK1", "assay_type": "biochemical", "conditions": "10 μM EP009", "procedure": "as §2"}, "IKK-alpha": {"target": "IKK-alpha (Homo sapiens, UniProt O15111)", "sequence (O15111 whole entry)": "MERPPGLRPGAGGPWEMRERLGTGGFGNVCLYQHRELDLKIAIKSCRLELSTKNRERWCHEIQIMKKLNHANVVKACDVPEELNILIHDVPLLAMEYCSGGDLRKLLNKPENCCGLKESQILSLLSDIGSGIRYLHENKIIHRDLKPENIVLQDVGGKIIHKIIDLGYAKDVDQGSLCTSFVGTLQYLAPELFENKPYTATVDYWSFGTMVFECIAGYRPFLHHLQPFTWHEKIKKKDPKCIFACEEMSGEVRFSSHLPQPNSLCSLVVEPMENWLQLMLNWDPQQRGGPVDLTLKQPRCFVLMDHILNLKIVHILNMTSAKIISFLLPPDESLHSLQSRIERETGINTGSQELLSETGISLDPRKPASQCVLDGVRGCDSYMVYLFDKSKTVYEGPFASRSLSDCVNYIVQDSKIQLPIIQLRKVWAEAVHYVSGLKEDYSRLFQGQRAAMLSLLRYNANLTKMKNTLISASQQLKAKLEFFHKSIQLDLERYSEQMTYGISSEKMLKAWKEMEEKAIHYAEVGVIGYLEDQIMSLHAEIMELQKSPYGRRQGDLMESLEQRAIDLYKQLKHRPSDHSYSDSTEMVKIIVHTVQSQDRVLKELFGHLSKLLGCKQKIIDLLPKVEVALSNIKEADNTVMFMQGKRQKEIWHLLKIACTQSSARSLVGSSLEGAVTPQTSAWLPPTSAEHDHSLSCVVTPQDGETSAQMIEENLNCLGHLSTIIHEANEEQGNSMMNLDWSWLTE", "experiment": "Kinase panel: IKK-alpha", "assay_type": "biochemical", "conditions": "10 μM EP009", "procedure": "as §2"}, "MEK2": {"target": "MEK2 (Homo sapiens, UniProt P36507)", "sequence (P36507 whole entry)": "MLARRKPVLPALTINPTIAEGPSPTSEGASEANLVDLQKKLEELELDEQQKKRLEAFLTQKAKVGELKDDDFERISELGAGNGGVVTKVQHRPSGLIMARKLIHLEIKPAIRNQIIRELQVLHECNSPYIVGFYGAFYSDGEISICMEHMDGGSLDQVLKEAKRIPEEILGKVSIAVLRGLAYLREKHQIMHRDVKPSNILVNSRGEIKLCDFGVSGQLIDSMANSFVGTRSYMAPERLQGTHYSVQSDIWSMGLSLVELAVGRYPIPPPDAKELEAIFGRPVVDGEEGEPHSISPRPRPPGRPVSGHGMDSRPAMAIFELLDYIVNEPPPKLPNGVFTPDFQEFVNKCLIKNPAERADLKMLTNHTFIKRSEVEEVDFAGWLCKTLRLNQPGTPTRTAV", "experiment": "Kinase panel: MEK2", "assay_type": "biochemical", "conditions": "10 μM EP009", "procedure": "as §2"}, "p38-beta": {"target": "p38-beta (Homo sapiens, UniProt Q15759)", "sequence (Q15759 whole entry)": "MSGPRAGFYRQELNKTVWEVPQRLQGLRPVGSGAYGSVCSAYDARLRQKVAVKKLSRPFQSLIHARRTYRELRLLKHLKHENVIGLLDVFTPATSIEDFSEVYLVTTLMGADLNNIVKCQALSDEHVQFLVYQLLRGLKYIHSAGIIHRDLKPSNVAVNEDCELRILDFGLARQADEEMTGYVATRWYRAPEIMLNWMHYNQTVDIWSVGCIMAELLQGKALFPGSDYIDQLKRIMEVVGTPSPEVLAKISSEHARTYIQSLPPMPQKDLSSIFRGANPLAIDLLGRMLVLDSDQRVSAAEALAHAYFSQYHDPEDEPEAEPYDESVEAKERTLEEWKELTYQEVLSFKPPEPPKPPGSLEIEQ", "experiment": "Kinase panel: p38-beta", "assay_type": "biochemical", "conditions": "10 μM EP009", "procedure": "as §2"}, "PAK2": {"target": "PAK2 (Homo sapiens, UniProt Q13177)", "sequence (Q13177 whole entry)": "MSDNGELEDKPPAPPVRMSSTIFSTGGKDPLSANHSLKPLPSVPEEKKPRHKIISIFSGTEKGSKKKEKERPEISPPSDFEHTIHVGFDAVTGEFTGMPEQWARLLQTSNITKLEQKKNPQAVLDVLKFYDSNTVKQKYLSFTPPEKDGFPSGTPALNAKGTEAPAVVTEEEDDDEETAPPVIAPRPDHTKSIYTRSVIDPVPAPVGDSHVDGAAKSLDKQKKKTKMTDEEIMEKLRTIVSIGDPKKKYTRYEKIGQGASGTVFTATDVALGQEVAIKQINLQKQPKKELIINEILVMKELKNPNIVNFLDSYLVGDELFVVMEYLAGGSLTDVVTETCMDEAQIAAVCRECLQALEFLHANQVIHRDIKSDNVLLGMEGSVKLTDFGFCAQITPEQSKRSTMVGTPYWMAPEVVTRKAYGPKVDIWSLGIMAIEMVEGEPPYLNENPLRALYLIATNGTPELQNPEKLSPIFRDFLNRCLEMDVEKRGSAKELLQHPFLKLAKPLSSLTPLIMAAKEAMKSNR", "experiment": "Kinase panel: PAK2", "assay_type": "biochemical", "conditions": "10 μM EP009", "procedure": "as §2"}, "RAF1": {"target": "RAF1 (Homo sapiens, UniProt P04049)", "sequence (P04049 whole entry)": "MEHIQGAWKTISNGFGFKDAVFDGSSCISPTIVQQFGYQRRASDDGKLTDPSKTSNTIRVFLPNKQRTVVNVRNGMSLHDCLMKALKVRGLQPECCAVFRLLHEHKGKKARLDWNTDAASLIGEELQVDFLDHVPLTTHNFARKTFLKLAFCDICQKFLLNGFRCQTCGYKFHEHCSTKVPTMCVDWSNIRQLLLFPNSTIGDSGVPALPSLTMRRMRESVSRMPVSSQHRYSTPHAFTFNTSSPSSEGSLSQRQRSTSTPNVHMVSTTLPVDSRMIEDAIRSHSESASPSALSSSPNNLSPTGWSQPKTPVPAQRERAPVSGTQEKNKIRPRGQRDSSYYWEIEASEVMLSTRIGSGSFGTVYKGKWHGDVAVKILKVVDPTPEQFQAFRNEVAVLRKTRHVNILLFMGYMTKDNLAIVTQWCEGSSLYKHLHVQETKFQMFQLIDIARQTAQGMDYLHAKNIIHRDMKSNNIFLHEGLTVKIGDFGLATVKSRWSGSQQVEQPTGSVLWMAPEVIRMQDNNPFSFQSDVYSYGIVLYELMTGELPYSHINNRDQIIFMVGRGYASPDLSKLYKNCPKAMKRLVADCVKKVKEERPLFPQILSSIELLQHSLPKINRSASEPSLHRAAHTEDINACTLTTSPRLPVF", "experiment": "Kinase panel: RAF1", "assay_type": "biochemical", "conditions": "10 μM EP009", "procedure": "as §2"}}, "data": [{"smiles": "C=C1CCCCCCCCCC(CO)C1=O", "note": "(stereo not shown) [EP009, 2-(Hydroxymethyl)-12-methylenecyclododecanone]", "values": [{"measurement": "stability under various solubility conditions", "setting": "[1]; 24 hr at 25° C. and 37° C.", "value": "stabile"}, {"measurement": "intrinsic stability (purity)", "setting": "[1]; various solvents at 37° C. for 24 hours", "value": "> 95", "unit": "%"}, {"measurement": "concentration resulting in maximal loss of Kit225 cell viability", "setting": "[2]; 72 hours", "value": "7.5 to 10", "unit": "µM"}, {"measurement": "cytotoxicity at 5 µM", "setting": "[2]; Homo sapiens, Kit225, 5.0 μM EP009, 72 hours, read-out: reduction in cell viability", "value": 55, "unit": "%"}, {"measurement": "effect on BaF/3 cell viability", "setting": "[3]", "value": "no effect"}, {"measurement": "Kinase Activity (% of Control)", "setting": "AKT1", "value": "100 % of Control"}, {"measurement": "Kinase Activity (% of Control)", "setting": "CDK9", "value": "90 % of Control"}, {"measurement": "Kinase Activity (% of Control)", "setting": "ERK1", "value": "100 % of Control"}, {"measurement": "Kinase Activity (% of Control)", "setting": "IKK-alpha", "value": "87 % of Control"}, {"measurement": "Kinase Activity (% of Control)", "setting": "MEK2", "value": "84 % of Control"}, {"measurement": "Kinase Activity (% of Control)", "setting": "p38-beta", "value": "96 % of Control"}, {"measurement": "Kinase Activity (% of Control)", "setting": "PAK2", "value": "100 % of Control"}, {"measurement": "Kinase Activity (% of Control)", "setting": "RAF1", "value": "97 % of Control"}]}]}
